IC50 data for 5 compounds are collected here from PubChem BioAssay AID743501 (Broad Institute, 2014).

Usually IC50 stands for the concentration that gives 50% inhibition.

Activity calls are given as the source filed them.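 Rule for the calls: active = half-inhibitory concentration IC50 below 35 µM against dopamine receptor luciferase signal; inactive = the rest.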

The experiment deals with HEK293 dopamine receptor CRE-luciferase, antagonist mode. Nature of the experiment: dopamine receptor CRE reporter signal reduction – cell-based, HEK293, luminescence, dry powder, counter-screen for LGR2 project, dose response (AID 743501). In general terms: A counterscreen serves to expose hits that act by an unwanted route or on another target.
Regarding `C[C@@H]1CCCCO[C@H](CN(C)C(=O)Nc2ccc(F)cc2)[C@H](C)CN([C@@H](C)CO)C(=O)c2cc(NC(=O)C3CCCCC3)ccc2O1`, the IC50 was > 35 µM (inactive).
For `C[C@H](CO)N1C[C@H](C)[C@H](CN(C)C(=O)Nc2ccc(F)cc2)OCCCC[C@H](C)Oc2ccc(NC(=O)C3CCCCC3)cc2C1=O`, the IC50 is below 35 µM.
With `COc1ccc(NC(=O)N(C)C[C@@H]2OCCCC[C@H](C)Oc3ccc(NC(=O)C4CCCCC4)cc3C(=O)N([C@H](C)CO)C[C@@H]2C)cc1`, the IC50 was > 35 µM (inactive).
Then `C[C@H](CO)N1C[C@H](C)[C@H](CN(C)C(=O)Nc2ccc3c(c2)OCO3)OCCCC[C@H](C)Oc2ccc(NC(=O)C3CCCCC3)cc2C1=O`, with below 35 µM; and `C[C@H](CO)N1C[C@H](C)[C@H](CN(C)C(=O)Nc2ccccc2)OCCCC[C@H](C)Oc2ccc(NC(=O)C3CCCCC3)cc2C1=O`, with below 35 µM.
